Measurements reported in BindingDB's records for doi:10.1016/j.bmcl.2004.06.018 (Darmstadt Technical University, 2004).
pIC50: −log10 of the molar value.

Target: Proto-oncogene tyrosine-protein kinase Src (Homo sapiens, UniProt P12931)
Experiment: Inhibition of fluorescent (GpYEEI) binding to Src protein tyrosine kinase SH2 domain

Chain of Proto-oncogene tyrosine-protein kinase Src (P12931 2-536 limits assumed): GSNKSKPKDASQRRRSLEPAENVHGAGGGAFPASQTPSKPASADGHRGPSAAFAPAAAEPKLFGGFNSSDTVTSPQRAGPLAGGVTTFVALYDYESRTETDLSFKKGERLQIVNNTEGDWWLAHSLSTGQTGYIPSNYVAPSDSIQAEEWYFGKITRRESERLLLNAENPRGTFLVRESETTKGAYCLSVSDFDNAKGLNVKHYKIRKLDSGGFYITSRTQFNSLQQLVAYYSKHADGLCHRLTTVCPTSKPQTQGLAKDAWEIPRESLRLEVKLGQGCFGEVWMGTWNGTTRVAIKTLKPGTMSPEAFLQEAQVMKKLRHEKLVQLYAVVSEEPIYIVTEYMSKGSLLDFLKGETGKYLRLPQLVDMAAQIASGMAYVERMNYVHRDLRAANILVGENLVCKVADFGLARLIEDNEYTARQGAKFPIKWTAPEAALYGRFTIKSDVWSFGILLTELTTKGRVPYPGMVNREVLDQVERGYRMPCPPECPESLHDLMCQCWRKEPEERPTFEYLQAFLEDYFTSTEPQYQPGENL

pIC50 | Structure (SMILES)
4.70 | COc1cccc(CNC(=O)[C@@H](NC(=O)COc2cc3[n+]4c(c2)C(=O)[O][Cu]4([OH])[O]C3=O)c2ccccc2)c1 [Copper complex]
4.77 | COc1cccc(CNC(=O)[C@H](Cc2ccccc2)NC(=O)COc2cc3[n+]4c(c2)C(=O)[O][Cu]4([OH])[O]C3=O)c1 [Copper complex]
